Consider 21 compounds from PubChem BioAssay (NCI).

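Cells were grown in 96-well plates and exposed to each compound for 48 hours at five concentrations; endpoints were interpolated linearly between bracketing concentrations, or set to the highest concentration if not reached. Here, GI50 denotes the concentration required for 50% inhibition of growth. TGI: total growth inhibition.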

Test systems include MDA-MB-435; MCF7 breast; T-47D breast; M19-MEL melanoma; DLD-1 colon; SNB-78 CNS; DMS 114 small cell lung; LXFL 529 NSCLC; DMS 273 small cell lung.
What all share (assay): NCI anticancer screen, dose series, 48 h

On to `Clc1ccc(Nc2ncnc3c2sc2ncccc23)c(Cl)c1`, for which, in the assay with MDA-MB-435, the GI50 is 0.0482 µM and the TGI is more than 100 µM. Moreover, in the assay with MCF7 breast, the GI50 is less than 0.01 µM and the TGI was more than 100 µM.

Regarding `O=C1Nc2c(ccc(Cl)c2Cl)/C1=C\c1cc(C(F)(F)F)cc(C(F)(F)F)c1`, the GI50 is 2.5 µM in the assay on T-47D breast, 1.99 µM with MDA-MB-435 and 0.848 µM in the assay with MCF7 breast. Besides, the TGI in the assay on T-47D breast was determined as 10.2 µM; in the assay on MDA-MB-435, 7.64 µM; with MCF7 breast it was 5.64 µM.

Take `Nc1nc(Cl)nc2c1ncn2C1OC(CO)C(O)C1O` (centres undefined): the GI50 with T-47D breast is more than 100 µM; in the assay on MDA-MB-435, 3.01 µM; with MCF7 breast, 1.66 µM. In addition, the TGI with T-47D breast, with MDA-MB-435 and with MCF7 breast was more than 100 µM throughout.

For `COc1ccc(Nc2ncccc2C(=O)NCc2cn(Cc3cccc(Oc4ccccc4)c3)nn2)c(OC)c1`, the GI50 is 39.4 µM with T-47D breast, 0.24 µM in the assay with MDA-MB-435 and 0.653 µM in the assay with MCF7 breast. For the same compound, the values for the TGI in the assay on T-47D breast, with MDA-MB-435 and in the assay with MCF7 breast were more than 100 µM, 0.707 µM and more than 100 µM, respectively.

Turning to `O=C1c2ccccc2-c2ccccc2C1(Cl)Cl`, the GI50 in the assay on T-47D breast is 1.6 µM; in the assay on MDA-MB-435, 0.197 µM; in the assay with MCF7 breast, 1.86 µM. In addition, the TGI in the assay with T-47D breast turned out to be 4.12 µM; in the assay with MDA-MB-435, 0.372 µM; with MCF7 breast it was 4.19 µM.

As for `O=[N+]([O-])c1cccc([I+]c2ccccc2)c1`, the values for the GI50 in the assay on T-47D breast, with MDA-MB-435 and in the assay on MCF7 breast were 8.28 µM, 11.6 µM and 8.29 µM, respectively. Also, the TGI in the assay with T-47D breast was 33.4 µM; in the assay with MDA-MB-435, 29.2 µM; in the assay on MCF7 breast it was 41.5 µM.

On to `Cc1nc(-n2nc(-c3ccccc3)cc2-c2ccccc2)sc1C(/C=C/c1ccc([N+](=O)[O-])cc1)=N/NC(N)=S`, for which the TGI with M19-MEL melanoma is more than 100 µM; in the assay with DLD-1 colon it was more than 100 µM; in the assay with SNB-78 CNS, 56.7 µM; in the assay on DMS 114 small cell lung, 73.5 µM; in the assay on LXFL 529 NSCLC, more than 100 µM.

As for `Cc1cc2nc3c4cc([N+](=O)[O-])ccc4n(CCN(C)C)c3nc2cc1C`, the results for the GI50 with T-47D breast, in the assay with MDA-MB-435 and with MCF7 breast were 0.549 µM, 0.635 µM and 0.36 µM, respectively. The TGI with T-47D breast was more than 42 µM; in the assay with MDA-MB-435 it was 1.96 µM.

In the case of `Oc1[nH]c2ccccc2c1/C=c1/ccc2c(c1)N=C(c1cc(F)cc(F)c1)N=2`, the GI50 was 4.55 µM in the assay with T-47D breast, 1.92 µM with MDA-MB-435 and 2.84 µM in the assay with MCF7 breast. The values for the TGI in the assay with T-47D breast, in the assay on MDA-MB-435 and in the assay with MCF7 breast were 21.3 µM, 5.08 µM and 14.1 µM, respectively.

Take `Cc1ccnc(NC(c2ccccc2)c2ccc3cccnc3c2O)c1` (centres undefined): the GI50 is 4.22 µM in the assay with T-47D breast, 4.18 µM in the assay on MDA-MB-435 and 5.18 µM in the assay on MCF7 breast. For the same compound, the TGI came out at 35.1 µM in the assay on T-47D breast, 30.5 µM with MDA-MB-435 and 30.4 µM in the assay with MCF7 breast.

Take `COC(=O)Cc1nn2c(nc1=O)sc1ccc3ccccc3c12`: the TGI in the assay with M19-MEL melanoma, in the assay with DLD-1 colon and in the assay on LXFL 529 NSCLC was more than 100 µM throughout.

`NC(CSC1(c2ccc(Cl)cc2)c2ccccc2-c2ccccc21)C(=O)O` (centres undefined): the figures for the TGI in the assay on T-47D breast, in the assay with MDA-MB-435 and in the assay on MCF7 breast were more than 100 µM, 35.3 µM and 39 µM, respectively.

For the compound `COc1cc(OC)c(/C=C/C(=O)c2c(O)cc(OC)c(C3CCN(C)CC3)c2OC)c(OC)c1`, in the assay on T-47D breast, the GI50 is 1.76 µM and the TGI was 3.25 µM. In the assay with MDA-MB-435, the GI50 is 1.53 µM and the TGI amounted to 2.92 µM.

Turning to `Cc1ccc(S(=O)(=O)OC2CSSCC2OS(=O)(=O)c2ccc(C)cc2)cc1` (centres undefined), the TGI in the assay on M19-MEL melanoma came to 26.3 µM; in the assay on DLD-1 colon, 24.7 µM; with SNB-78 CNS it was 37 µM; in the assay with DMS 273 small cell lung it was 21.8 µM; in the assay on DMS 114 small cell lung, 26.4 µM; with LXFL 529 NSCLC, 23.6 µM.

Take `O=C(Nc1nc(-c2ccccc2Cl)cs1)c1cc(-c2ccc(Cl)cc2)nc2ccc(Cl)cc12`: the GI50 is 22.5 µM with T-47D breast, 1.71 µM in the assay on MDA-MB-435 and 0.678 µM with MCF7 breast. For the same compound, the TGI in the assay with T-47D breast was more than 100 µM; with MDA-MB-435 it was 4.72 µM; with MCF7 breast, more than 100 µM.

With `NNc1ncnc2cccc(Cl)c12`, the TGI with T-47D breast and with MCF7 breast was more than 100 µM each time.

Consider `CC/C(=C(/CC)c1ccc(O)cc1)c1ccc(O)cc1`, for which the figures for the GI50 in the assay on T-47D breast, with MDA-MB-435 and in the assay with MCF7 breast were 6.85 µM, 1.87 µM and 5.78 µM, respectively. Further, the TGI with T-47D breast worked out at 47 µM; in the assay on MDA-MB-435 it was 5.14 µM; in the assay with MCF7 breast, 19.3 µM.

For the compound `CNC(=O)c1cc(Oc2ccc3nc(NC(=O)Nc4cc(C(F)(F)F)cc(C(F)(F)F)c4)sc3c2)ccn1`, the GI50 is 0.479 µM in the assay with T-47D breast, 1.04 µM in the assay with MDA-MB-435 and 1.05 µM with MCF7 breast. Further, the TGI with T-47D breast is 2.3 µM; in the assay on MDA-MB-435, 2.7 µM; in the assay on MCF7 breast, 2.93 µM.

In the case of `ClCc1ccc(-c2ccc(Cn3cnc4c(Cl)ncnc43)cc2)cc1`, in the assay with MCF7 breast, the GI50 is 1.1 µM and the TGI turned out to be 12.4 µM.

With `COC1/C=C/OC2(C)Oc3c(C)c(O)c4c(O)c(c(C=NOC(c5ccccc5)c5ccccc5)c(O)c4c3C2=O)NC(=O)/C(C)=C/C=C/C(C)C(O)C(C)C(O)C(C)C(OC(C)=O)C1C` (centres undefined), the GI50 in the assay on T-47D breast was 1.87 µM; in the assay with MDA-MB-435, 1.18 µM; with MCF7 breast, 1.31 µM. Besides, the TGI in the assay with T-47D breast turned out to be 6.71 µM; in the assay on MDA-MB-435 it was 3.01 µM; in the assay with MCF7 breast it was 3.81 µM.

With `[Au+].c1c[n-]cn1.c1ccc([PH+](c2ccccc2)c2ccccc2)cc1`, the GI50 in the assay on T-47D breast was 2.02 µM; with M19-MEL melanoma, 3.4 µM; in the assay with SNB-78 CNS, 7.57 µM; in the assay with MDA-MB-435 it was 5.17 µM; in the assay with DMS 273 small cell lung it was 7.87 µM; with DMS 114 small cell lung, 0.668 µM. The GI50 in the assay on LXFL 529 NSCLC was 1.59 µM. In addition, the TGI with T-47D breast is 4.74 µM; in the assay on M19-MEL melanoma, 11.9 µM; in the assay with SNB-78 CNS it was more than 45.2 µM; in the assay on MDA-MB-435 it was 23.1 µM; in the assay with DMS 273 small cell lung it was more than 44 µM; in the assay on DMS 114 small cell lung, 1.91 µM. This compound came in with a TGI in the assay on LXFL 529 NSCLC of 2.95 µM.
